Values joined by “and” are separate entries in the source; they are usually repeats but may differ in a detail not shown here. Equal entries are not always repeated.
Tested on: LG0703-F498-PDC complex spheroid growth
Experiment: Anticancer human tumor LG0703-F498-PDC patient-derived lung adenocarcinoma cell line growth inhibition [AhR]
Conditions: for viability, T/C: stronger effect = lower value
Summary of the method: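 Complex tumor spheroids co-cultured with HUVEC and human MSC stroma; AhR antagonists tested in combination with standard-of-care and investigational agents. Top concentration at or near clinical Cmax (else 10 microM), half-log dilutions; growth expressed as percent test/control.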

[1] = curve of first compound, second compound 0.1 µM
[2] = curve of first compound, second compound 0.316 µM
[3] = curve of first compound, second compound 1 µM
[4] = curve of first compound, second compound 3.16 µM
[5] = curve of first compound, second compound 10 µM
[6] = second compound 0.1 µM, first compound 0.00316 µM
[7] = second compound 0.1 µM, first compound 0.01 µM
[8] = second compound 0.1 µM, first compound 0.0316 µM
[9] = second compound 0.1 µM, first compound 0.1 µM
[10] = second compound 0.1 µM, first compound 0.316 µM
[11] = second compound 0.1 µM, first compound 1 µM
[12] = second compound 0.316 µM, first compound 0.00316 µM
[13] = second compound 0.316 µM, first compound 0.01 µM
[14] = second compound 0.316 µM, first compound 0.0316 µM
[15] = second compound 0.316 µM, first compound 0.1 µM
[16] = second compound 0.316 µM, first compound 0.316 µM
[17] = second compound 0.316 µM, first compound 1 µM
[18] = second compound 1 µM, first compound 0.00316 µM
[19] = second compound 1 µM, first compound 0.01 µM
[20] = second compound 1 µM, first compound 0.0316 µM
[21] = second compound 1 µM, first compound 0.1 µM
[22] = second compound 1 µM, first compound 0.316 µM
[23] = second compound 1 µM, first compound 1 µM
[24] = second compound 3.16 µM, first compound 0.00316 µM
[25] = second compound 3.16 µM, first compound 0.01 µM
[26] = second compound 3.16 µM, first compound 0.0316 µM
[27] = second compound 3.16 µM, first compound 0.1 µM
[28] = second compound 3.16 µM, first compound 0.316 µM
[29] = second compound 3.16 µM, first compound 1 µM
[30] = second compound 10 µM, first compound 0.00316 µM
[31] = second compound 10 µM, first compound 0.01 µM
[32] = second compound 10 µM, first compound 0.0316 µM
[33] = second compound 10 µM, first compound 0.1 µM
[34] = second compound 10 µM, first compound 0.316 µM
[35] = second compound 10 µM, first compound 1 µM
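Also: luminescence taken as a proxy for viable cell amount.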
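For viability, T/C in this document: percent of DMSO vehicle control where 100% means growth equal to vehicle.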

In the case of `Nc1ncn(C2CC(O)C(CO)O2)c(=O)n1` (centres undefined) + Cc1cncc(-c2nc(NCCc3c[nH]c4ccccc34)c3ncn(C(C)C)c3n2)c1, the IC50 [1] is reported as over 1 µM, the IC50 [2] is reported as over 1 µM and the IC50 [3] is reported as over 1 µM. For the same molecule, the IC50 [4] was over 1 µM, the IC50 [5] was under 0.00316 µM and the viability, T/C [6] was 85.7%. The viability, T/C [7] was 98%, the viability, T/C [8] was 94.8% and the viability, T/C [9] was 84.4%. For the same molecule, the viability, T/C [10] was 79.9%, the viability, T/C [11] was 86.4% and the viability, T/C [12] was 109%. It also gave a viability, T/C [13] of 102%, a viability, T/C [14] of 88% and a viability, T/C [15] of 86.8%. For the same molecule, the viability, T/C [16] was 81.9%, the viability, T/C [17] was 79.9% and the viability, T/C [18] was 106%. The viability, T/C [19] was 116%, the viability, T/C [20] was 98.7% and the viability, T/C [21] was 89.3%. The viability, T/C [22] was 89.3%, the viability, T/C [23] was 87.2% and the viability, T/C [24] was 56%. It also gave a viability, T/C [25] of 59.8%, a viability, T/C [26] of 58.5% and a viability, T/C [27] of 64.3%. It also gave a viability, T/C [28] of 55.1%, a viability, T/C [29] of 60% and a viability, T/C [30] of 1.37%. For the same molecule, the viability, T/C [31] was 1.38%, the viability, T/C [32] was 1.23% and the viability, T/C [33] was 1.12%. It also gave a viability, T/C [34] of 1.02% and a viability, T/C [35] of 1.63%.
Molecule `CC[C@@]1(O)C(=O)OCc2c1cc1n(c2=O)Cc2cc3c(CN(C)C)c(O)ccc3nc2-1` + CC(CO)NC(=O)c1cc(-c2ccc(Cl)cc2)nn(-c2cnn(C)c2)c1=O has an IC50 [1] of over 0.1 µM, an IC50 [2] of over 0.1 µM and an IC50 [3] of over 0.1 µM. The IC50 [4] was over 0.1 µM, the IC50 [5] was over 0.1 µM and the viability, T/C (second compound 0.1 µM, first compound 0.000316 µM) was 89%. For the same molecule, the viability, T/C (second compound 0.1 µM, first compound 0.001 µM) was 101%, the viability, T/C [6] was 86.7% and the viability, T/C [7] was 90.6%. It also gave a viability, T/C [8] of 83.2%, a viability, T/C [9] of 66.1% and a viability, T/C (second compound 0.316 µM, first compound 0.000316 µM) of 96%. For the same molecule, the viability, T/C (second compound 0.316 µM, first compound 0.001 µM) was 99.5%, the viability, T/C [12] was 92.3% and the viability, T/C [13] was 80.9%. The viability, T/C [14] was 73.2%, the viability, T/C [15] was 57.2% and the viability, T/C (second compound 1 µM, first compound 0.000316 µM) was 80.8%. The viability, T/C (second compound 1 µM, first compound 0.001 µM) was 93.2%, the viability, T/C [18] was 84.5% and the viability, T/C [19] was 77.4%. It also gave a viability, T/C [20] of 78.6%, a viability, T/C [21] of 61.2% and a viability, T/C (second compound 3.16 µM, first compound 0.000316 µM) of 76%. For the same molecule, the viability, T/C (second compound 3.16 µM, first compound 0.001 µM) was 86.3%, the viability, T/C [24] was 90.8% and the viability, T/C [25] was 79.2%. The viability, T/C [26] was 58.6%, the viability, T/C [27] was 52.9% and the viability, T/C (second compound 10 µM, first compound 0.000316 µM) was 79.2%. The viability, T/C (second compound 10 µM, first compound 0.001 µM) was 79.7%, the viability, T/C [30] was 86.6% and the viability, T/C [31] was 66.5%. The viability, T/C [32] was 63.4% and the viability, T/C [33] was 51.9%.
`O=C(C=Cn1cnc(-c2cc(C(F)(F)F)cc(C(F)(F)F)c2)n1)NNc1cnccn1` was tested, and the viability, T/C (compound 0.00949 µM) was 84.1% and 93.9% and 79.2%, the viability, T/C (compound 0.03 µM) was 83.7% and 79.7% and 62.9% and the viability, T/C (compound 0.0949 µM) was 55.5% and 52% and 41.8%. The viability, T/C (compound 0.3 µM) was 48.2% and 37.7% and 35.7%, the viability, T/C (compound 0.949 µM) was 40.9% and 39.8% and 39.1% and the viability, T/C (compound 3 µM) was 31.4% and 35.3% and 32.7%. For the same molecule, the IC50 (curve of compound) was 0.215 µM and 0.109 µM and 0.0606 µM.
For `Nc1ncn(C2CC(O)C(CO)S2)c(=O)n1` (centres undefined) + Cc1cncc(-c2nc(NCCc3c[nH]c4ccccc34)c3ncn(C(C)C)c3n2)c1, the IC50 [1] was over 0.3 µM, the IC50 [2] was over 0.3 µM and the IC50 [3] was over 0.3 µM. The IC50 [4] was under 0.000949 µM, the IC50 [5] was under 0.000949 µM and the viability, T/C (second compound 0.1 µM, first compound 0.000949 µM) was 107%. It also gave a viability, T/C (second compound 0.1 µM, first compound 0.003 µM) of 109%, a viability, T/C (second compound 0.1 µM, first compound 0.00949 µM) of 91.9% and a viability, T/C (second compound 0.1 µM, first compound 0.03 µM) of 98.4%. The viability, T/C (second compound 0.1 µM, first compound 0.0949 µM) was 104%, the viability, T/C (second compound 0.1 µM, first compound 0.3 µM) was 105% and the viability, T/C (second compound 0.316 µM, first compound 0.000949 µM) was 117%. The viability, T/C (second compound 0.316 µM, first compound 0.003 µM) was 107%, the viability, T/C (second compound 0.316 µM, first compound 0.00949 µM) was 108% and the viability, T/C (second compound 0.316 µM, first compound 0.03 µM) was 115%. It also gave a viability, T/C (second compound 0.316 µM, first compound 0.0949 µM) of 109%, a viability, T/C (second compound 0.316 µM, first compound 0.3 µM) of 99.1% and a viability, T/C (second compound 1 µM, first compound 0.000949 µM) of 87.3%. For the same molecule, the viability, T/C (second compound 1 µM, first compound 0.003 µM) was 89.1%, the viability, T/C (second compound 1 µM, first compound 0.00949 µM) was 78.2% and the viability, T/C (second compound 1 µM, first compound 0.03 µM) was 86.3%. For the same molecule, the viability, T/C (second compound 1 µM, first compound 0.0949 µM) was 94.4%, the viability, T/C (second compound 1 µM, first compound 0.3 µM) was 103% and the viability, T/C (second compound 3.16 µM, first compound 0.000949 µM) was 3.25%. For the same molecule, the viability, T/C (second compound 3.16 µM, first compound 0.003 µM) was 3.89%, the viability, T/C (second compound 3.16 µM, first compound 0.00949 µM) was 4.63% and the viability, T/C (second compound 3.16 µM, first compound 0.03 µM) was 5.24%. It also gave a viability, T/C (second compound 3.16 µM, first compound 0.0949 µM) of 2.89%, a viability, T/C (second compound 3.16 µM, first compound 0.3 µM) of 4.14% and a viability, T/C (second compound 10 µM, first compound 0.000949 µM) of 1.24%. The viability, T/C (second compound 10 µM, first compound 0.003 µM) was 0.8%, the viability, T/C (second compound 10 µM, first compound 0.00949 µM) was 1.81% and the viability, T/C (second compound 10 µM, first compound 0.03 µM) was 1.01%. The viability, T/C (second compound 10 µM, first compound 0.0949 µM) was 1.6% and the viability, T/C (second compound 10 µM, first compound 0.3 µM) was 1.59%.
Work on `COc1cccc2c1C(=O)c1c(O)c3c(c(O)c1C2=O)CC(O)(C(=O)CO)CC3OC1CC(N)C(O)C(C)O1` (centres undefined) + CC(CO)NC(=O)c1cc(-c2ccc(Cl)cc2)nn(-c2cnn(C)c2)c1=O yielded an IC50 [1] of 0.77 µM, an IC50 [2] of 0.523 µM and an IC50 [3] of 0.547 µM. The IC50 [4] was 0.459 µM, the IC50 [5] was 0.36 µM and the viability, T/C [8] was 82.7%. The viability, T/C [9] was 80.6%, the viability, T/C [10] was 72.2% and the viability, T/C [11] was 43%. It also gave a viability, T/C (second compound 0.1 µM, first compound 3.16 µM) of 14.2%, a viability, T/C (second compound 0.1 µM, first compound 10 µM) of 1.2% and a viability, T/C [14] of 84.3%. For the same molecule, the viability, T/C [15] was 84.2%, the viability, T/C [16] was 58.4% and the viability, T/C [17] was 36%. It also gave a viability, T/C (second compound 0.316 µM, first compound 3.16 µM) of 12.7%, a viability, T/C (second compound 0.316 µM, first compound 10 µM) of 0.83% and a viability, T/C [20] of 86.7%. For the same molecule, the viability, T/C [21] was 89.6%, the viability, T/C [22] was 61.6% and the viability, T/C [23] was 34.7%. For the same molecule, the viability, T/C (second compound 1 µM, first compound 3.16 µM) was 10%, the viability, T/C (second compound 1 µM, first compound 10 µM) was 0.76% and the viability, T/C [26] was 82.7%. The viability, T/C [27] was 84.8%, the viability, T/C [28] was 59.3% and the viability, T/C [29] was 27.4%. It also gave a viability, T/C (second compound 3.16 µM, first compound 3.16 µM) of 4.74%, a viability, T/C (second compound 3.16 µM, first compound 10 µM) of 1.92% and a viability, T/C [32] of 71.3%. The viability, T/C [33] was 73.8%, the viability, T/C [34] was 54.1% and the viability, T/C [35] was 13.9%. It also gave a viability, T/C (second compound 10 µM, first compound 3.16 µM) of 0.65% and a viability, T/C (second compound 10 µM, first compound 10 µM) of 0.96%.
In the case of `Cn1ncnc1C1c2n[nH]c(=O)c3cc(F)cc(c23)NC1c1ccc(F)cc1` (centres undefined), the viability, T/C (compound 0.000316 µM) is reported as 97.7% and 91.1% and 110%, the viability, T/C (compound 0.001 µM) is reported as 106% and 103% and 98.6% and the viability, T/C (compound 0.00316 µM) is reported as 96.4% and 111% and 102%. For the same molecule, the viability, T/C (compound 0.01 µM) was 94% and 97.9% and 89.2%, the viability, T/C (compound 0.0316 µM) was 107% and 106% and 95.7% and the viability, T/C (compound 0.1 µM) was 86.6% and 102% and 90%. For the same molecule, the IC50 (curve of compound) was over 0.1 µM.

Source: PubChem BioAssay AID1919013 (Molecular Pharmacology Branch, DTP, NCI, 2023)
